Source: the Kinase Knowledgebase extract (Sharma et al. 2016)

Target: PIK3CD (Human) (UniProt O00329)
Test: Enzyme Assay

Sequence of PIK3CD (Human) (O00329 whole entry, looked up): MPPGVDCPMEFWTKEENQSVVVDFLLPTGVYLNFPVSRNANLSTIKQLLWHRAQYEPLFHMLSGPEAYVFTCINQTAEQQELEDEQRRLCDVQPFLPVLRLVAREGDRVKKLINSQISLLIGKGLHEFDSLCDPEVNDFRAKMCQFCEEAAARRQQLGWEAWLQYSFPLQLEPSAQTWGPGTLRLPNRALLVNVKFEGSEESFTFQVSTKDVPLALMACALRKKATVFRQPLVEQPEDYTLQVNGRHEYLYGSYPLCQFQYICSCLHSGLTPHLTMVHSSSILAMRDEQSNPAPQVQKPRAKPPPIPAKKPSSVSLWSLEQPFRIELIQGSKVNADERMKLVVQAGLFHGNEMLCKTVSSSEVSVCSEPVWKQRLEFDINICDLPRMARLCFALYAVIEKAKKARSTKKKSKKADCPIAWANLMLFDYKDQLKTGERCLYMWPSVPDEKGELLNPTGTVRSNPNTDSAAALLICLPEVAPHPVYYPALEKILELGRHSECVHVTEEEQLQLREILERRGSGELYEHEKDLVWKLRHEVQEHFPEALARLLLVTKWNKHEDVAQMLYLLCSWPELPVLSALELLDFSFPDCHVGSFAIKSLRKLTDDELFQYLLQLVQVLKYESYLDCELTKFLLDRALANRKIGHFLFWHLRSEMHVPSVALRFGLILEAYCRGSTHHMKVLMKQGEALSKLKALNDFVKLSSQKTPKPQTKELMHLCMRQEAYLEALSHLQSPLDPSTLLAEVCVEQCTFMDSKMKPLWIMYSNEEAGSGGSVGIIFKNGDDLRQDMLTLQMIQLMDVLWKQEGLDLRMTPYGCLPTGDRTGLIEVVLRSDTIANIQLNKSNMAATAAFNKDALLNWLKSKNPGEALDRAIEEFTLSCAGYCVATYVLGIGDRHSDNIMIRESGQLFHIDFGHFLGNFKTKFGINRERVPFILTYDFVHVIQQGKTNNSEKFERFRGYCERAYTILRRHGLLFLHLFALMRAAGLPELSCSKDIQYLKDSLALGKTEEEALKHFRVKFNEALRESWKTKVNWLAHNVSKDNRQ

Q: CCn1c(C(=O)NCC(F)(F)F)nc2c(O[C@H]3CCC(C(=O)N4CC(OC)C4)C3)ncnc21 (some centres undefined) was tested. Which IC50 did it give?
A: Its IC50 is 9.9 nM.

Q: With CCC(=O)N1CC[C@H](Oc2ncnc3c2nc(-c2cnc(OC)c(C)c2)n3C)C1 as the compound, how does the IC50 read?
A: Its IC50 is 2.1 nM.

Q: With CCC(=O)N1CCC(Oc2ncnc3c2nc(-c2cnn(CC)c2C)n3C)CC1 as the compound, how does the IC50 read?
A: The IC50 was 800 nM.

Q: With CCn1ncc(-c2nc3c(O[C@H]4CCN(C(=O)c5cnn(C)c5)C4)ncnc3n2C)c1C as the compound, how does the IC50 read?
A: Its IC50 is 14 nM.

Q: For CCn1ncc(-c2nc3c(O[C@H]4CCN(C(=O)c5noc(C(C)(C)O)n5)C4)ncnc3n2C)c1C, which IC50 is on record?
A: The IC50 was 120 nM.

Q: For Cn1c(-c2ccc(N3CCCC3)nc2)nc2c(O[C@H]3CCN(C(=O)OC(C)(C)C)C3)ncnc21, which IC50 is on record?
A: Its IC50 is 590 nM.

Q: How did the IC50 turn out when CCn1c(-c2cnn3c2CCCC3)nc2c(O[C@H]3CCN(C(=O)C4CC4)C3)ncnc21 was run?
A: The IC50 was less than 1 nM.

Q: How did the IC50 turn out when CCn1ncc(-c2nc3c(O[C@H]4CCN(C(=O)OCC(C)C)C4)ncnc3n2C)c1C was run?
A: Its IC50 is 17 nM.

Q: For CCCn1c(-c2cnn(CC)c2C)nc2c(O[C@H]3CCN(C(=O)CC)C3)ncnc21, which IC50 is on record?
A: The IC50 was 58 nM.
